Measured values published in ChEMBL document CHEMBL1667741, “Rational design, synthesis, and characterization of highly fluorescent optical switches for high-contrast optical lock-in detection (OLID) imaging microscopy in living cells” (Bioorg Med Chem, 2011).

What was measured:
Format in all cases: ADME, cell-based
Conditions in all cases: nih3t3; call rule not given here
[1] = Drug uptake in mouse NIH/3T3 cells assessed as fluorescent optical switching measured after continuous irradiation at 546 and 365 nm light by optical lock-in detection imaging microscopy
[2] = Drug uptake in mouse NIH/3T3 cells assessed as fluorescent optical switching measured after every 2 s with 100 ms pulse of 365 nm irradiation by optical lock-in detection imaging microscopy
[3] = Drug uptake in mouse NIH/3T3 cells assessed as fluorescent optical switching measured after continuous irradiation at 546 nm light by optical lock-in detection imaging microscopy; design: dose or concentration left out as unconfirmed

Row | Drug uptake [1] | Drug uptake [2] | Drug uptake [3] | SMILES
1 | Active |  |  | CN(C)c1ccc2c(-c3ccc(C(=O)NCCCOc4ccc5ccc6c(c5c4)N=CC4(O6)N(CCCCCC(=O)ON5C(=O)CCC5=O)c5ccccc5C4(C)C)cc3C(=O)[O-])c3ccc(=[N+](C)C)cc-3oc2c1 (centres undefined)
2 | Active |  |  | CN(C)c1ccc2c(-c3ccc(C(=O)NC(CCCCNC(=O)CCCc4ccc5c(c4)C(C)(C)C4(C=Nc6c(ccc7ccccc67)O4)N5C)C(=O)O)cc3C(=O)[O-])c3ccc(=[N+](C)C)cc-3oc2c1 (centres undefined)
3 | Active |  |  | CN(C)c1ccc2c(-c3ccc(C(=O)NCc4cccc5c4C(C)(C)C4(C=Nc6c(ccc7ccc(O)cc67)O4)N5C)cc3C(=O)[O-])c3ccc(=[N+](C)C)cc-3oc2c1 (centres undefined)
4 | Active | Active |  | CN(C)c1ccc2c(-c3ccc(C(=O)NCc4cccc5c4C(C)(C)C4(C=Nc6c(ccc7ccccc67)O4)N5C)cc3C(=O)[O-])c3ccc(=[N+](C)C)cc-3oc2c1 (centres undefined)
5 | Active |  |  | CN(C)c1ccc2c(-c3ccc(C(=O)NCCCOc4ccc5ccc6c(c5c4)N=CC4(O6)N(C)c5ccc(CCCC(=O)ON6C(=O)CCC6=O)cc5C4(C)C)cc3C(=O)[O-])c3ccc(=[N+](C)C)cc-3oc2c1 (centres undefined)
6 | Active |  |  | CN(C)c1ccc2c(-c3ccc(C(=O)NCCc4ccc5c(c4)C(C)(C)C4(C=Nc6c(ccc7ccccc67)O4)N5C)cc3C(=O)[O-])c3ccc(=[N+](C)C)cc-3oc2c1 (centres undefined)
7 | Active |  | Active | COc1ccc2ccc3c(c2c1)N=CC1(O3)N(C)c2cccc(CNC(=O)c3ccc(-c4c5ccc(=[N+](C)C)cc-5oc5cc(N(C)C)ccc45)c(C(=O)[O-])c3)c2C1(C)C (centres undefined)
